# Measurements reported in patent US8637510B2, “Morpholinothiazoles as alpha 7 positive allosteric modulators” (Janssen Pharmaceutica NV, priority 2009, dated 2014).
# How the values were obtained:
# human alpha 7-wt nAChR = molecular target: T1, human alpha 7-wt nAChR (Homo sapiens, UniProt P36544); assay: Ca2+ flux imaging (FDSS) (Protocol B); format: cell-based; conditions: for EC50: potentiation of 100 μM choline, compounds 0.01 μM to 30 μM, read-out: a7-PAM-G_[33]_pEC50 pEC50 (converted); for Emax: efficacy of 100 μM choline defined as 100% in the absence of a PAM, read-out: a7-PAM-G_[33]_Eff_Curve_FI % Efficacy
# T1 construct: expressed in transfected cells
# Summary of the method: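 PAM activity was measured as FDSS calcium fluorescence in α7-wt nAChR cells loaded with 2 μM Fluo-4AM, with compounds at 0.01–30 μM added alongside or 10 min ahead of sub-maximal 100 μM choline. Peak responses were normalised to choline-only efficacy, and EC50 was taken at half-maximal effect.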
# [1] = molecular target: T2, human alpha 7-wt nAChR-expressing GH4C1 cells (Homo sapiens, UniProt P36544); assay: Patch-clamp current recording (whole-cell voltage-clamp, PAM type classification); format: cell-based; parameters: key: Type 0 compounds minimally change the effect size of the current elicited by 1 mM choline.; Type 1 compounds enhance the effect size of the current elicited by 1 mM choline but minimally alter the kinetics of the receptor.; Type 2 compounds enhance the effect size of the current elicited by 1 mM choline while reducing the rate and/or the extent of desensitization.; Type 3 compounds enhance the effect size of the current elicited by 1 mM choline. When tested at higher concentrations up to 10 μM they completely inhibit desensitization; Type 4 compounds allow for an initial desensitization of the receptor followed by a re-opening of the receptor during agonist application; conditions: 1 mM choline
# T2 construct: expressed in transfected cells
# Protocol: The compounds of the present invention are classified as type 1-4, based on qualitative kinetic properties, as determined by whole-cell voltage-clamp recordings. This classification is based on the effect of an alpha 7 PAM compound, as described hereinbefore, on the signal elicited by an agonist application. In particular, said agonist is choline at a concentration of 1 mM. In a preferred experimental setting, said alpha 7 PAM compound and choline are simultaneously applied to the cell, as described hereinafter. Desensitization is defined as the closure of the receptor upon activation during the application of the agonist in whole-cell voltage-clamp electrophysiology measurements seen as the reduction of the […] current after initial activation by the agonist.
# The definition of the PAM types 1-4 is described hereinafter: • Type 0 compounds minimally change the effect size of the current elicited by 1 mM choline. • Type 1 compounds enhance the effect size of the current elicited by 1 mM choline but minimally alter the kinetics of the receptor. In particular, the rate and the extent of desensitization and of deactivation of the receptor elicited by the agonist is not affected. The compound-modulated response to 1 mM choline, therefore, is close to a linear scaling of the 1 mM choline response in absence of the alpha 7 PAM compound. • Type 2 compounds enhance the effect size of the current elicited by 1 mM choline while reducing the rate and/or the extent of desensitization. Deactivation of the receptor is generally unaffected. • Type 3 compounds enhance the effect size of the current elicited by 1 mM choline. […] Deactivation of the receptor may be slowed down • Type 4 compounds allow for an initial desensitization of the receptor followed by a re-opening of the receptor during agonist application. At low-potency concentrations of the alpha 7 PAM compound, the agonist-induced activation, which is followed by desensitization, can still be separated from the compound-induced re-opening as an initial inward current-maximum. At higher potency concentrations of the alpha 7 PAM compound, the re-opening occurs faster than the closure due to desensitization so that the initial current-maximum disappears.
# A compound was considered to have interesting PAM-like activity when the potentiation of the peak current was at least 200% compared to the control choline response (=100%). Such compounds are classified as belonging to a particular PAM type in the Experimental Part. Compounds not meeting the condition are not classified as belonging to a particular PAM-type.
# The compounds also have a potentiating effect on the response to choline when measured by whole-cell patch clamp electrophysiology in GH4C1 cells stably over-expressing the human wild-type alpha 7 receptor.
# Patch-clamp recording from mammalian cells has provided a powerful means of assessing the function of membrane-bound proteins thought to be subunits of ligand-gated ion channels. Activation of such proteins by endogenous or exogenous ligands cause opening of a pore associated with the receptor through which ions flow down their electrochemical gradient. In the case of the human alpha 7-wt nAChR-expressing GH4C1 recombinant cell line the preferential permeability to calcium of this receptor means that calcium flows into the cell upon activation by ACh, choline and other nicotinic ligands giving rise to a calcium current. Since this receptor rapidly desensitizes in the presence of agonist it is important that an application system is used which is capable of very rapid switching of solutions (<100 ms) to prevent partial or full desensitisation of receptor responses coincident with the time of agonist application. Consequently, a second convenient technique to assess the enhancement of nicotinic efficacy is a patch-clamp recording from human alpha 7-wt nAChR-expressing GH4C1 cells coupled with a rapid-application system. […]
# T1 sequence (P36544 23-502): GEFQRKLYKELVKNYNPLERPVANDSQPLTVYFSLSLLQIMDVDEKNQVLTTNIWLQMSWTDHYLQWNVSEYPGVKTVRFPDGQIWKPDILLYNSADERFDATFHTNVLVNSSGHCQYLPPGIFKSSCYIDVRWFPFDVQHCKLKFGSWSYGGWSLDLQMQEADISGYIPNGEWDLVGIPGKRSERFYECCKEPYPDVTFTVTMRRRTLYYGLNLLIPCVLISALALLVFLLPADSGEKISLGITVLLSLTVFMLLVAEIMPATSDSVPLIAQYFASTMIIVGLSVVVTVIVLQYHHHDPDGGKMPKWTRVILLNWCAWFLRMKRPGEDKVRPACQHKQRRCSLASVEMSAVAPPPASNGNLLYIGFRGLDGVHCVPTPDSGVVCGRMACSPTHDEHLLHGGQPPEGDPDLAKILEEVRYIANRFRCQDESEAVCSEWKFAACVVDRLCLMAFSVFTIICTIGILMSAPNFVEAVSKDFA
# T2 sequence (P36544 23-502): as above
Compound,EC50 (human alpha 7-wt nAChR) [nM],Emax (human alpha 7-wt nAChR) [%],PAM_Type PAM type [1]
"Cc1cc(-c2sc(N3C[C@@H](C)O[C@@H](C)C3)nc2CNC(=O)C2CCC2)cc(C)n1 [Compound 2, N-[[2-[(2R,6S)-2,6-dimethyl-4-morpholinyl]-5-(2,6-dimethyl-4-pyridinyl)-4-thiazolyl]methyl]-cyclobutanecarboxamide]",67.6,–,2
"Cc1cc(-c2sc(N3C[C@@H](C)O[C@@H](C)C3)nc2CNC(=O)c2ccc(Cl)cc2Cl)cc(C)n1 [Compound 10, 2,4-dichloro-N-[[2-[(2R,6S)-2,6-dimethyl-4-morpholinyl]-5-(2,6-dimethyl-4-pyridinyl)-4-thiazolyl]methyl]-benzamide]",83.2,630,2
"Cc1cc(-c2sc(N3C[C@@H](C)O[C@@H](C)C3)nc2CNC(=O)c2ccc(OC(F)(F)F)cc2)cc(C)n1 [Compound 11, N-[[2-[(2R,6S)-2,6-dimethyl-4-morpholinyl]-5-(2,6-dimethyl-4-pyridinyl)-4-thiazolyl]methyl]-4-(trifluoromethoxy)-benzamide]",813,703,2
"Cc1cc(-c2sc(N3C[C@@H](C)O[C@@H](C)C3)nc2CNC(=O)c2ccc(F)c(F)c2F)cc(C)n1 [Compound 14, N-[[2-[(2R,6S)-2,6-dimethyl-4-morpholinyl]-5-(2,6-dimethyl-4-pyridinyl)-4-thiazolyl]methyl]-2,3,4-trifluoro-benzamide]",339,787,2
"Cc1cc(-c2sc(N3C[C@@H](C)O[C@@H](C)C3)nc2CNC(=O)c2cccnc2C)cc(C)n1 [Compound 17, N-[[2-[(2R,6S)-2,6-dimethyl-4-morpholinyl]-5-(2,6-dimethyl-4-pyridinyl)-4-thiazolyl]methyl]-2-methyl-3-pyridinecarboxamide]",1000,499,2
"Cc1cc(-c2sc(N3C[C@@H](C)O[C@@H](C)C3)nc2CNC(=O)c2ccc(C(F)(F)F)cc2)cc(C)n1 [Compound 23, N-[[2-[(2R,6S)-2,6-dimethyl-4-morpholinyl]-5-(2,6-dimethyl-4-pyridinyl)-4-thiazolyl]methyl]-4-(trifluoromethyl)-benzamide]",229,594,2
"Cc1cc(-c2sc(N3C[C@@H](C)O[C@@H](C)C3)nc2CNC(=O)c2c(C)noc2C)cc(C)n1 [Compound 25, N-[[2-[(2R,6S)-2,6-dimethyl-4-morpholinyl]-5-(2,6-dimethyl-4-pyridinyl)-4-thiazolyl]methyl]-3,5-dimethyl-4-isoxazolecarboxamide]",813,235,0
"Cc1cc(-c2sc(N3C[C@@H](C)O[C@@H](C)C3)nc2CNC(=O)C(C)C)cc(C)n1 [Compound 40, N-[[2-[(2R,6S)-2,6-dimethyl-4-morpholinyl]-5-(2,6-dimethyl-4-pyridinyl)-4-thiazolyl]methyl]-2-methyl-propanamide]",100,965,2
"Cc1cc(-c2sc(N3C[C@@H](C)O[C@@H](C)C3)nc2CNC(=O)C2CC2)cc(C)n1 [Compound 48, N-[[2-[(2R,6S)-2,6-dimethyl-4-morpholinyl]-5-(2,6-dimethyl-4-pyridinyl)-4-thiazolyl]methyl]-cyclopropanecarboxamide]",661,–,2

# More lines, main results first:
EC50 (human alpha 7-wt nAChR) [nM],Emax (human alpha 7-wt nAChR) [%],Compound,PAM_Type PAM type [1]
135,568,"Cc1cc(-c2sc(N3C[C@@H](C)O[C@@H](C)C3)nc2CNC(=O)c2ccccc2Cl)cc(C)n1 [Compound 5, 2-chloro-N-[[2-[(2R,6S)-2,6-dimethyl-4-morpholinyl]-5-(2,6-dimethyl-4-pyridinyl)-4-thiazolyl]methyl]-benzamide]",2
316,723,"Cc1cc(-c2sc(N3C[C@@H](C)O[C@@H](C)C3)nc2CNC(=O)c2cccc(F)c2)cc(C)n1 [Compound 7, N-[[2-[(2R,6S)-2,6-dimethyl-4-morpholinyl]-5-(2,6-dimethyl-4-pyridinyl)-4-thiazolyl]methyl]-3-fluoro-benzamide]",2
457,452,"Cc1cc(-c2sc(N3C[C@@H](C)O[C@@H](C)C3)nc2CNC(=O)c2ccc(F)cc2)cc(C)n1 [Compound 8, N-[[2-[(2R,6S)-2,6-dimethyl-4-morpholinyl]-5-(2,6-dimethyl-4-pyridinyl)-4-thiazolyl]methyl]-4-fluoro-benzamide]",2
240,566,"Cc1cc(-c2sc(N3C[C@@H](C)O[C@@H](C)C3)nc2CNC(=O)c2cccc(Cl)c2)cc(C)n1 [Compound 9, 3-chloro-N-[[2-[(2R,6S)-2,6-dimethyl-4-morpholinyl]-5-(2,6-dimethyl-4-pyridinyl)-4-thiazolyl]methyl]-benzamide]",2
550,595,"Cc1cc(-c2sc(N3C[C@@H](C)O[C@@H](C)C3)nc2CNC(=O)c2cccc(C#N)c2)cc(C)n1 [Compound 12, 3-cyano-N-[[2-[(2R,6S)-2,6-dimethyl-4-morpholinyl]-5-(2,6-dimethyl-4-pyridinyl)-4-thiazolyl]methyl]-benzamide]",2
288,593,"Cc1cc(-c2sc(N3C[C@@H](C)O[C@@H](C)C3)nc2CNC(=O)c2ccc(F)cc2F)cc(C)n1 [Compound 13, N-[[2-[(2R,6S)-2,6-dimethyl-4-morpholinyl]-5-(2,6-dimethyl-4-pyridinyl)-4-thiazolyl]methyl]-2,4-difluoro-benzamide]",2
170,411,"Cc1cc(-c2sc(N3C[C@@H](C)O[C@@H](C)C3)nc2CNC(=O)c2cc(F)cc(F)c2)cc(C)n1 [Compound 15, N-[[2-[(2R,6S)-2,6-dimethyl-4-morpholinyl]-5-(2,6-dimethyl-4-pyridinyl)-4-thiazolyl]methyl]-3,5-difluoro-benzamide]",2
100,378,"Cc1cc(-c2sc(N3C[C@@H](C)O[C@@H](C)C3)nc2CNC(=O)c2ccc(Cl)cc2)cc(C)n1 [Compound 19, 4-chloro-N-[[2-[(2R,6S)-2,6-dimethyl-4-morpholinyl]-5-(2,6-dimethyl-4-pyridinyl)-4-thiazolyl]methyl]-benzamide]",2
17.4,526,"Cc1cc(-c2sc(N3C[C@@H](C)O[C@@H](C)C3)nc2CNC(=O)c2ccc(F)cc2C)cc(C)n1 [Compound 24, N-[[2-[(2R,6S)-2,6-dimethyl-4-morpholinyl]-5-(2,6-dimethyl-4-pyridinyl)-4-thiazolyl]methyl]-4-fluoro-2-methyl-benzamide]",2
380,422,"Cc1cc(-c2sc(N3C[C@@H](C)O[C@@H](C)C3)nc2CNC(=O)c2cccc(F)c2F)cc(C)n1 [Compound 32, N-[[2-[(2R,6S)-2,6-dimethyl-4-morpholinyl]-5-(2,6-dimethyl-4-pyridinyl)-4-thiazolyl]methyl]-2,3-difluoro-benzamide]",1
